Data reported in patent US4812312A, “Liposome-incorporated nystatin” (Board of Regents of the University of Texas System, priority 1987, dated 1989).
Read-outs that look alike come from different tables or passages of the source.

Assays:
[1] = system: HTLV-III/LAV; settings: cell line H9; cited from earlier work
[2] = Solubility of nystatin / polyenes; assay type: physicochemical
[3] = system: Candida albicans strain 336; test: In vitro MIC, twofold serial dilution, C. albicans strain 336 (Table 5); assay type: cell-based
Method: (§1) Organism, culture, and assay of antifungal activity in vitro. All strains of yeast were grown overnight at 37° C. on Sabouraud dextrose agar (SDA) plates. All molds were grown at 30° C. on SDA for 3 to 10 days prior to collection of spores. The inoculum was then processed for susceptibility testing as described earlier (Hopfer et al., Antimicrob. Agents Chemotherap., Vol. 25, pp 387-389 (1984)). A twofold serial dilution method (Shadomy et al., In E. H. Lennette, et al., (eds.) Manual of Clinical Microbiology, 3rd ed. American Society for Microbiology, Washington, D.C. , pp. 647-653 (1980)) adapted to microtiter plates was used to determine the minimal inhibitory concentration (MIC) of the drugs. The MIC of L-Nys were compared with that of free-Nys. Empty liposomes and 5% dimethylsulfoxide (DMSO) were used as controls.
The antifungal activity was maintained after Nys was entrapped in liposomes with or without sterols.

[4] = system: Allescheria; test: In vitro antifungal spectrum, MIC (Table 6); assay type: cell-based
Method: as §1
(§2) The L-Nys was prepared and tested generally as described above in this and earlier examples, except for the various new fungal varieties. […] (Hopfer et al., […], Vol. 25, No. 3, pp. 387-389 (1984)).

[5] = system: Alternaria; test: In vitro antifungal spectrum, MIC (Table 6); assay type: cell-based
Method: as §1, §2

[6] = system: Aspergillus flavus; test: In vitro antifungal spectrum, MIC (Table 6); assay type: cell-based
Method: as §1, §2

[7] = system: Aspergillus fumigatus; test: In vitro antifungal spectrum, MIC (Table 6); assay type: cell-based
Method: as §1, §2

[8] = system: Aspergillus niger; test: In vitro antifungal spectrum, MIC (Table 6); assay type: cell-based
Method: as §1, §2

[9] = system: Aspergillus not fumigatus; test: In vitro antifungal spectrum, MIC (Table 6); assay type: cell-based
Method: as §1, §2

[10] = system: Candida albicans; test: In vitro antifungal spectrum, MIC (Table 6); assay type: cell-based
Method: as §1, §2

[11] = system: Candida paratropicalis; test: In vitro antifungal spectrum, MIC (Table 6); assay type: cell-based
Method: as §1, §2

[12] = system: Candida tropicalis; test: In vitro antifungal spectrum, MIC (Table 6); assay type: cell-based
Method: as §1, §2

[13] = system: Cryptococcus neoformans; test: In vitro antifungal spectrum, MIC (Table 6); assay type: cell-based
Method: as §1, §2

[14] = system: Curvularia; test: In vitro antifungal spectrum, MIC (Table 6); assay type: cell-based
Method: as §1, §2

[15] = system: Fusarium; test: In vitro antifungal spectrum, MIC (Table 6); assay type: cell-based
Method: as §1, §2

[16] = system: Mucor; test: In vitro antifungal spectrum, MIC (Table 6); assay type: cell-based
Method: as §1, §2

[17] = system: Rhizopus; test: In vitro antifungal spectrum, MIC (Table 6); assay type: cell-based
Method: as §1, §2

[18] = system: Torulopsis globrata; test: In vitro antifungal spectrum, MIC (Table 6); assay type: cell-based
Method: as §1, §2

[19] = system: human RBCs; test: Lysis of human red blood cells (hemoglobin release at 550 nm); assay type: cell-based; settings: 37 °C, 45 min
Method: Lysis of human red blood cells (RBCs) was quantitated by measuring the release of hemoglobin in the supernatants at 550 nm, as described previously (Mehta et al., Biochem. Biophys, Acta., Vol. 770, pp. 230-234 (1984)). Various doses of L-Nys were incubated with fresh washed human RBCs at 37° C for 45 min. Free-Nys, dissolved in dimethyl formamide (DMFA), was added to the assay at a 3% final solvent concentration. Appropriate solvent controls, empty liposomes, and empty liposomes plus free-drug were also included in each experiment. Release of hemoglobin by hypotonic lysis of the same number of human RBCs by water was taken as 100% positive control, while cells treated with PBS were taken as negative controls.

[20] = system: mice; test: In vivo toxicology in Hale-Stoner mice
Method: Groups of eight Hale-Stoner mice (6-8 weeks old, body wt=20-25 g; Univ. of TX Science Park, Bastrop, TX) each were injected with various doses of free-Nys (in 5% DMSO diluted with saline), L-Nys, empty liposomes or 5% DMSO as control. […] After 45 days, the surviving animals were sacrificed and blood and tissue samples were obtained. Blood biochemistry examination included blood urea nitrogen, alkaline phosphatase, and lactic dehydrogenase (LDH). The organs (liver, spleen, lungs and kidneys) were obtained and preserved in 10% formalin. Tissue slices were processed for hematoxylin-eosin and Gomori methenamine silver stains.

[21] = system: Candida albicans; test: Single-dose therapy with free Nys of disseminated C. albicans infection in mice; assay type: in vivo, Hale-Stoner mice; settings: single iv dose, 1 mg to 4 mg/kg
Method: (§3) Hale-Stoner mice, six to eight weeks old (body weight, 20-25 g) were purchased from The University of Texas Science Park (Bastrop, TX). The mice (eight per group) were injected with 0.2 ml of C. albicans cell suspension containing 7×10^5 colony-forming units (cfu) via the tail vein. This concentration of cells was consistent in producing a disseminated infection after 48 hr, affecting liver, spleen, lungs, and kidneys primarily. Infected mice were treated with increasing doses of free-Nys, ranging from 1 mg to 4 mg/kg body weight (FIG. 5).

[22] = system: Candida albicans; test: Single-dose therapy with free Nys or L-Nys of disseminated C. albicans infection in mice; assay type: in vivo, Hale-Stoner mice; settings: 4 mg/kg
Method: as §3
Mice were infected with C. albicans as described in Example 9. Groups of eight mice each were injected (iv) with various doses of free-Nys, L-Nys, empty liposomes or 5% DMSO two days after the injection of C. albicans. The survival of the animals in each group was noted and compared with that of the untreated control group.

[23] = system: Candida albicans; test: Multiple-dose therapy with Nys or L-Nys of disseminated C. albicans infection in mice; assay type: in vivo, Hale-Stoner mice
Method: as §3
Two days after the injection of C. albicans (iv), (as described in Examples 9 and 10), the mice were treated with different doses of free-Nys, L-Nys, empty liposomes or 5% DMSO control for five consecutive days. The multiple-dose groups were also compared with appropriate cumulative single doses (see Example 10). The animals were then observed for survival or any toxicity pertaining to the treatment with five daily doses.
These experiments were terminated at 60 days, and blood and tissue samples were collected from the surviving animals after sacrifice.
Survival curves were calculated by the method of Kaplan and Meier (J. Amer. Stat. Assoc., Vol. 53, pp 457-462 […]) and tests for differences in survival distributions were based on a generalized Wilcoxon test (Gehan., Biometrika, Vol. 52, pp 203-223 (1965)). […]

[24] = cited from earlier work
[25] = orally and topically; cited from earlier work

For `C[C@@H]1[C@H](O)[C@@H](C)/C=C/C=C/C=C/C=C/C=C/C=C/C=C/[C@H](O[C@@H]2O[C@H](C)[C@@H](O)[C@H](N)[C@@H]2O)C[C@@H]2O[C@](O)(C[C@@H](O)C[C@@H](O)[C@H](O)CC[C@@H](O)C[C@@H](O)CC(=O)O[C@H]1C)C[C@H](O)[C@H]2C(=O)O` [amphotericin B], the “replication of HTLV-III/LAV in H9 cells” value [1] is given as “inhibited”.
With `C[C@@H]1[C@H](O)[C@@H](C)/C=C/C=C/CC/C=C/C=C/C=C/C=C/C(O[C@H]2O[C@H](C)[C@@H](O)[C@H](N)[C@@H]2O)CC2O[C@](O)(CC(O)C(O)CCC(O)CC(O)CC(O)CC(=O)O[C@H]1C)CC(O)C2C(=O)O` (some centres unmarked) [free-Nys, nystatin] the “soluble in DMFA” value ([2]; N,N-dimethylformamide) was 15 mg/mL, the “soluble in DMSO” value ([2]; dimethyl sulfoxide) was 40 mg/mL and the soluble in methanol ([2]; methanol) was 1 mg/mL. For the same compound, the Minimal Inhibitory Concentration [3] was 1.0 µg/mL, the “Minimal Inhibitory Concentration” value [4] was 16 µg/mL and the “Minimal Inhibitory Concentration” value [5] was 2 µg/mL. The “Minimal Inhibitory Concentration” value [6] was 1 µg/mL, the “Minimal Inhibitory Concentration” value [7] was 8 µg/mL and the “Minimal Inhibitory Concentration” value [8] was 4 µg/mL. For the same compound, the “Minimal Inhibitory Concentration” value ([9]; Aspergillus not fumigatus #1) was 4 µg/mL, the “Minimal Inhibitory Concentration” value ([9]; Aspergillus not fumigatus #2) was 16 µg/mL and the “Minimal Inhibitory Concentration” value ([10]; C. albicans #1) was 2 µg/mL. The “Minimal Inhibitory Concentration” value ([10]; C. albicans #2) was 2 µg/mL, the “Minimal Inhibitory Concentration” value ([10]; C. albicans #3) was 4 µg/mL and the “Minimal Inhibitory Concentration” value ([10]; C. albicans #4) was 4 µg/mL. The “Minimal Inhibitory Concentration” value ([10]; C. albicans #5) was 8 µg/mL, the “Minimal Inhibitory Concentration” value ([10]; C. albicans #6) was 4 µg/mL and the “Minimal Inhibitory Concentration” value ([10]; C. albicans #7) was 8 µg/mL. The “Minimal Inhibitory Concentration” value ([10]; C. albicans #8) was 8 µg/mL, the “Minimal Inhibitory Concentration” value ([10]; C. albicans #9) was 4 µg/mL and the “Minimal Inhibitory Concentration” value ([10]; C. albicans #10) was 4 µg/mL. For the same compound, the “Minimal Inhibitory Concentration” value ([11]; C. paratropicalis #1) was 2 µg/mL, the “Minimal Inhibitory Concentration” value ([11]; C. paratropicalis #2) was 2 µg/mL and the “Minimal Inhibitory Concentration” value ([11]; C. paratropicalis #3) was 4 µg/mL. For the same compound, the “Minimal Inhibitory Concentration” value ([11]; C. paratropicalis #4) was 4 µg/mL, the “Minimal Inhibitory Concentration” value ([12]; C. tropicalis #1) was 16 µg/mL and the “Minimal Inhibitory Concentration” value ([12]; C. tropicalis #2) was 8 µg/mL. For the same compound, the “Minimal Inhibitory Concentration” value ([12]; C. tropicalis #3) was 4 µg/mL, the “Minimal Inhibitory Concentration” value ([12]; C. tropicalis #4) was 4 µg/mL and the “Minimal Inhibitory Concentration” value ([13]; Cryptococcus neoformans #1) was 4 µg/mL. The “Minimal Inhibitory Concentration” value ([13]; Cryptococcus neoformans #2) was 4 µg/mL, the “Minimal Inhibitory Concentration” value [14] was 2 µg/mL and the “Minimal Inhibitory Concentration” value [15] was 62.5 µg/mL. The “Minimal Inhibitory Concentration” value [16] was 2 µg/mL, the “Minimal Inhibitory Concentration” value [17] was 4 µg/mL and the “Minimal Inhibitory Concentration” value ([18]; Torulopsis globrata #1) was 4 µg/mL. The “Minimal Inhibitory Concentration” value ([18]; Torulopsis globrata #2) was 2 µg/mL, the “Minimal Inhibitory Concentration” value ([18]; Torulopsis globrata #3) was 4 µg/mL and the “Minimal Inhibitory Concentration” value ([18]; Torulopsis globrata #4) was 4 µg/mL. The “lysis of human RBCs” value ([19]; 120 ug/ml) was 100%, the “concentration range with linear increase in lysis of human RBCs” value [19] was 60 to 120 µg/mL and the mortality ([20]; 4.4 mg/kg, mice, iv) was “all the animals died immediately”. For the same compound, the “toxicity and efficacy when administered intravenously” value ([20]; intravenous, summary) was “toxic and noneffective when administered intravenously”, the “maximal tolerated dose (MTD)” value ([20]; mice, iv, per body weight) was 4 mg/kg and the “survival of infected mice versus untreated control” value [21] was “None of the doses tested improved the survival of infected mice”. The “therapeutic effect in vivo” value [22] was “no therapeutic effect in vivo”, the survival time ([23]; single or multiple doses) was 10 days and the “survival of infected mice” value ([23]; single or multiple doses (MTD, five consecutive days)) was “died as rapidly as the untreated controls”. For the same compound, the solubility in water ([24]; listed as Nys) was “substantially water-insoluble”, the solubility in water ([24]; listed as Nystatin) was “aqueous insolubility” and the tolerability [25] was “Tolerated well both orally and topically”.
For `COC(=O)[C@H]1[C@@H]2C[C@@H](O[C@@H]3O[C@H](C)[C@@H](O)[C@H](N)[C@@H]3O)/C=C/C=C/C=C/C=C/C=C/C=C/C=C/[C@H](C)[C@@H](O)[C@@H](C)[C@H](C)OC(=O)C[C@H](O)C[C@H](O)CC[C@@H](O)[C@H](O)C[C@H](O)C[C@](O)(C[C@@H]1O)O2` [amphotericin B methyl ester ascorbate], the “replication of HTLV-III/LAV in H9 cells” value [1] is given as “inhibited”.
